Measurements from the supplement of paper PMC10307832.

Assays:
Experiment in all cases: relative viability (nuclei count vs DMSO), 5 days (fraction); higher = more cells survive
[1] = compound: C1=CC2=C(C=C(C(=C2N=C1)O)N=NC3=CC4=C(C=C3)C=C(C=C4)S(=O)(=O)O)S(=O)(=O)O + COc1cccc2cc(-c3nc([C@H]4CC[C@H](C(=O)O)CC4)n4ncnc(N)c34)[nH]c12 [OSI-027] (partner 0.5 µM)
Method in brief: (§1)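 Each reported value is a median over duplicate plates. It expresses relative viability: treated-well nuclei count divided by vehicle-well nuclei count. Lung cancer cell lines in 1536-well plates were dosed by pin tool a day after seeding, alone with one drug or with a fixed anchor-drug dose plus five library-drug doses (not always all listed) in √10 steps, and nuclei were counted after 5 days.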

AT-7519 + Dasatinib = compound: O=C(NC1CCNCC1)c1n[nH]cc1NC(=O)c1c(Cl)cccc1Cl [AT-7519] + Cc1nc(Nc2ncc(C(=O)Nc3c(C)cccc3Cl)s2)cc(N2CCN(CCO)CC2)n1 [Dasatinib] (partner 0.075 µM)
Method in brief: as §1

[2] = compound: C1=CC2=C(C=C(C(=C2N=C1)O)N=NC3=CC4=C(C=C3)C=C(C=C4)S(=O)(=O)O)S(=O)(=O)O + CS(=O)(=O)N1CCN(Cc2cc3nc(-c4cccc5[nH]ncc45)nc(N4CCOCC4)c3s2)CC1 [Pictilisib] (partner 1 µM)
Method in brief: as §1

AT-7519 + Lapatinib = compound: O=C(NC1CCNCC1)c1n[nH]cc1NC(=O)c1c(Cl)cccc1Cl [AT-7519] + CS(=O)(=O)CCNCc1ccc(-c2ccc3ncnc(Nc4ccc(OCc5cccc(F)c5)c(Cl)c4)c3c2)o1 [Lapatinib] (partner 2 µM)
Method in brief: as §1

Cell Line	relative viability ([1]; first compound 0.08 µM)	relative viability ([1]; first compound 0.253 µM)	relative viability ([1]; first compound 0.8 µM)	relative viability ([1]; first compound 2.53 µM)	relative viability ([1]; first compound 8 µM)	relative viability (AT-7519 + Dasatinib; first compound 0.01 µM)	relative viability (AT-7519 + Dasatinib; first compound 0.03162 µM)	relative viability (AT-7519 + Dasatinib; first compound 0.3162 µM)	relative viability (AT-7519 + Dasatinib; first compound 1 µM)	relative viability ([2]; first compound 0.08 µM)	relative viability ([2]; first compound 0.253 µM)	relative viability ([2]; first compound 0.8 µM)	relative viability ([2]; first compound 2.53 µM)	relative viability ([2]; first compound 8 µM)	relative viability (AT-7519 + Lapatinib; first compound 0.01 µM)	relative viability (AT-7519 + Lapatinib; first compound 0.03162 µM)	relative viability (AT-7519 + Lapatinib; first compound 0.3162 µM)	relative viability (AT-7519 + Lapatinib; first compound 1 µM)
NCI-H2342	0.529	0.657	0.603	0.563	0.674	0.328	0.277	0.314	0.313	–	–	–	–	–	–	–	–	–
HCC-15	0.75	0.675	0.627	0.63	0.65	0.669	0.584	0.433	0.191	0.839	0.766	0.635	0.804	0.636	0.891	0.828	0.692	0.5
A-427	0.402	0.447	0.45	0.41	0.5	0.702	0.675	0.707	0.391	0.665	0.731	0.629	0.672	0.709	1.1	0.989	1.03	0.929
NCI-H2228	0.765	0.688	0.653	0.57	0.592	0.407	0.464	0.516	0.352	0.435	0.427	0.289	0.567	0.291	1.02	1.11	0.669	0.481
NCI-H1734	0.632	0.602	0.573	0.586	0.349	0.445	0.421	0.391	0.31	0.565	0.434	0.426	0.492	0.455	0.893	1.03	0.928	0.427
PC-14	1.16	0.861	0.819	0.833	0.837	0.241	0.239	0.163	0.0573	0.845	0.682	0.621	0.585	0.673	0.269	0.302	0.313	0.296
NCI-H1915	0.59	0.667	0.649	0.634	0.628	0.215	0.316	0.334	0.274	0.883	0.97	0.856	0.95	0.952	1.02	0.987	0.863	0.8
NCI-H1666	0.897	0.838	0.793	0.827	0.847	0.744	0.75	0.75	0.593	0.459	0.383	0.358	0.42	0.479	0.657	0.579	0.327	0.347
HCC-366	0.989	0.932	0.89	0.861	0.948	0.729	0.571	0.435	0.308	0.142	0.139	0.165	0.219	0.203	0.868	1.08	0.797	0.243
SK-MES-1	0.69	0.633	0.588	0.681	0.661	0.336	0.31	0.405	0.217	0.444	0.354	0.376	0.328	0.377	0.455	0.468	0.451	0.392
SW 1573	0.734	0.622	0.61	0.463	0.401	0.762	0.466	0.255	0.0794	0.449	0.431	0.475	0.447	0.523	1.08	1.18	1.07	0.569
NCI-H661	0.789	0.736	0.703	0.683	0.687	0.732	0.849	0.71	0.392	0.372	0.345	0.359	0.517	0.353	0.348	0.383	0.385	0.322
PC-3 [JPC-3]	0.815	0.71	0.791	0.778	0.769	0.841	0.99	0.915	1.04	0.79	0.771	0.663	0.713	0.694	0.529	0.441	0.416	0.52
NCI-H1623	0.466	0.391	0.419	0.468	0.438	0.58	0.646	0.63	0.604	–	–	–	–	–	–	–	–	–
Calu-6	–	–	–	–	–	–	–	–	–	0.903	1.01	0.955	0.974	0.838	1.12	1.07	0.988	0.18
LC-2-ad	0.936	0.855	0.626	0.906	0.723	0.555	0.61	0.328	0.332	0.429	0.476	0.532	0.405	0.423	1.03	1.05	0.922	0.744
CAL-12T	0.592	0.585	0.577	0.819	0.831	0.532	0.404	0.214	0.0899	0.351	0.409	0.366	0.36	0.323	–	0.538	0.386	0.186
RERF-LC-KJ	0.664	0.624	0.593	0.608	0.588	0.903	0.847	0.611	0.195	0.623	0.648	0.588	0.56	0.543	0.847	0.922	0.86	0.851

Cell Line	relative viability ([1]; first compound 0.08 µM)	relative viability ([1]; first compound 0.253 µM)	relative viability ([1]; first compound 0.8 µM)	relative viability ([1]; first compound 2.53 µM)	relative viability ([1]; first compound 8 µM)	relative viability (AT-7519 + Dasatinib; first compound 0.01 µM)	relative viability (AT-7519 + Dasatinib; first compound 0.03162 µM)	relative viability (AT-7519 + Dasatinib; first compound 0.3162 µM)	relative viability (AT-7519 + Dasatinib; first compound 1 µM)	relative viability ([2]; first compound 0.08 µM)	relative viability ([2]; first compound 0.253 µM)	relative viability ([2]; first compound 0.8 µM)	relative viability ([2]; first compound 2.53 µM)	relative viability ([2]; first compound 8 µM)	relative viability (AT-7519 + Lapatinib; first compound 0.01 µM)	relative viability (AT-7519 + Lapatinib; first compound 0.03162 µM)	relative viability (AT-7519 + Lapatinib; first compound 0.3162 µM)	relative viability (AT-7519 + Lapatinib; first compound 1 µM)
NCI-H1650	0.718	0.542	0.667	0.651	0.65	0.32	0.293	0.22	0.164	0.645	0.587	0.529	0.648	0.596	0.781	0.782	0.555	0.21
BEN	0.289	0.303	0.244	0.297	0.292	0.354	0.321	0.399	0.331	0.617	0.564	0.493	0.667	0.48	0.834	0.68	0.781	0.55
EMC-BAC-2	0.408	0.397	0.386	0.363	0.343	0.358	0.327	0.296	0.227	0.514	0.566	0.522	0.555	0.349	0.866	0.85	0.889	0.886
LU99A	0.311	0.301	0.35	0.292	0.296	0.609	0.574	0.468	0.536	0.391	0.314	0.251	0.297	0.37	1.02	1.07	0.898	0.41
ABC-1	0.435	0.336	0.463	0.499	0.64	0.525	0.617	0.398	0.262	0.629	0.63	0.579	0.67	0.643	0.984	0.909	0.986	0.966
NCI-H2170	0.958	0.676	0.666	0.756	0.689	0.593	0.576	0.626	0.558	0.315	0.4	0.312	0.306	0.308	0.289	0.305	0.278	0.249
NCI-H1299	–	–	–	–	–	–	–	–	–	0.755	0.823	0.821	0.87	0.623	0.994	0.977	0.975	0.58
EBC-1	–	–	–	–	–	–	–	–	–	0.511	0.333	0.439	0.391	0.499	0.234	0.2	0.213	0.178
NCI-H1648	0.259	0.251	0.263	0.253	0.185	–	–	–	–	–	–	–	–	–	–	–	–	–
ChaGo-K-1	0.641	0.555	0.519	0.556	0.382	0.583	0.501	0.611	0.543	0.645	0.669	0.673	0.851	0.711	–	–	–	–
HCC-44	–	0.651	0.5	0.55	0.601	–	–	–	–	0.649	0.636	0.548	0.649	0.766	0.984	1.05	1.1	0.979
A549	–	–	–	–	–	–	–	–	–	0.522	0.449	0.545	0.509	0.322	0.879	1.01	0.856	0.349
NCI-H522	0.683	0.623	0.565	0.724	0.592	–	0.864	0.841	0.956	–	–	–	–	–	–	–	–	–
IA-LM	–	–	–	–	–	–	–	–	–	0.302	0.312	0.283	0.347	0.322	0.911	0.821	0.658	0.0627
NCI-H1703	–	–	–	–	–	–	–	–	–	0.264	0.232	0.265	0.246	0.197	1.03	0.955	0.821	0.206
NCI-H441	0.504	0.638	0.461	0.66	0.588	0.574	0.654	0.421	0.324	0.475	0.49	0.37	0.528	0.498	–	–	–	–
LCLC-103H	0.475	0.485	0.444	0.463	0.517	0.533	0.388	0.451	0.54	0.662	0.625	0.489	0.615	0.705	–	–	–	–
SW 900	0.55	0.554	0.608	0.517	0.424	0.715	0.568	0.642	0.254	–	–	–	–	–	–	–	–	–
